Reference: US20100286056A1, “COMPOSITIONS FOR REDUCING OXIDATIVE STRESS AND USES THEREOF” (priority 2007, published 2010)

Columns and labels:
human dermal fibroblasts = assay: UVA-induced intracellular amplification of ROS (dihydrorhodamine 123, flow cytometry); assay type: cell-based
Procedure: The modulating effect of the tripeptides […]) and Thyrotropin Releasing Hormones (TRH, Protirelin, Thyoliberin, […]) was examined on human dermal fibroblasts that were seeded into 3.5 cm^2 tissue culture dishes in a density of 150,000 per dish in […] medium. Two days after seeding the cells, the medium supplemented with 10% foetal calf serum, 1% L-glutamine and 1% penicillin/streptomycin was exchanged with serum-free RPMI medium and pre-incubated for 24 hours with KPV, […] Subsequently, the cells were exposed to a physiological dose of UVA radiation (10 J/cm^2). Immediately after radiation, the cells were incubated with 5 μM dihydrorhodamine 123 plus 5 mM glucose in phosphate buffer (PBS) for 30 minutes. Subsequently, the cells were trypsinized, resuspended in PBS with 5 mM glucose and analyzed by means of flow cytometry (FACS, FACSCalibur with 488 nm argon laser). The above dihydrorhodamine probe is oxidized in the presence of intracellular ROS into green fluorescent […] and, thus, can be measured fluorometrically. A total of 10×10^3 cells per probe were analyzed and evaluated using CELL-QUEST software. The median of the FL-1 channel was used as parameter for the intracellular ROS amount, since it represents the maximum number of cells with the highest fluorescence. […]

B16.F1 melanoma cells = assay: Extracellular melanin accumulation (optical density 405 nm); assay type: cell-based, mouse; conditions: peptides at 10^-6, 10^-8 and 10^-10 M; NDP-α-MSH 10^-8 M; 72 hrs (FIG. 3)
Description: It is also preferred that the compounds of the invention have no or merely a negligible melanotropic effect. “Melanotropic effect” means that the compound induces the extracellular melanin accumulation in a cell assay in accordance with the method described in the appended example 2 and/or in accordance with the method described in Siegrist and Eberle (Anal. Biochem. 1986; 159; 191-197), title “In situ melanin assay for MSH using mouse B16 melanoma cells in culture”. “No or negligible” means that the mean melanin accumulation which is induced by the compounds of the invention exceeds the mean melanin accumulation which is induced by at least one of the two compounds as exemplified in Example 2 by not more than about 40%, 30%, 20%, 15%, 10%, 5%, 2.5%, 2% or 1%, preferably under conditions which equate to or are identical with those set out in Example 2. The skilled person is able to justify which assay conditions/assays equate with the assay/conditions exemplified in the appended examples. The melanin accumulation evaluated in Example 2 is depicted in FIG. 3. The effect of the compounds of the invention on extracellular melanin accumulation is thus determinable by the methods disclosed herein. […]

Compound | UVA-induced intracellular amplification of ROS (oxidative stress) (human dermal fibroblasts; 10^-8 M peptide, 24 h pre-incubation, UVA 10 J/cm^2, significant, p<0.001 (FIG. 1)) | effect on UVA-induced intracellular amplification of ROS compared to vitamin C (ascorbate) (human dermal fibroblasts; peptide 10^-8M vs vitamin C at 10^-2M as printed (FIG. 2)) | melanotropic effect (extracellular melanin accumulation) (B16.F1 melanoma cells)
NC(=O)[C@@H]1CCCN1C(=O)[C@H](Cc1c[nH]cn1)NC(=O)[C@@H]1CCC(=O)N1 [TRH, L-Pyroglutamyl-L-histidyl-L-prolinamid] | suppressed | comparable with that of vitamin C | 
NDP-α-MSH |  |  | p<0.001 vs. control
